Like-named read-outs stand apart in the source and are kept apart here.
Target: Mtb Lpd (Mycobacterium tuberculosis (strain ATCC 25618 / H37Rv), UniProt P9WHH9)
Assay type: biochemical
[1] = 30 min preincubation, read-out: LPD IC50 (μM) w/ 30 min preincubation

Row | SMILES | IC50 (read-out: LPD IC50) [µM] | IC50 [1] [µM]
1 | Cc1cc(S(=O)(=O)N(C)CC(=O)Nc2cc(C)n(C)c(=O)c2)c2[nH]ncc2c1 [Example 17, 2-((N,5-dimethyl-1H-indazole)-7-sulfonamido)-N-(1,6-dimethyl-2-oxo-1,2-dihydropyridin-4-yl)acetamide] | 0.052 | 
2 | Cc1cc(S(=O)(=O)N(CC(=O)Nc2ccn(C)c(=O)c2)C2COC2)c2[nH]ncc2c1 [Example 38, N-(1-methyl-2-oxo-1,2-dihydropyridin-4-yl)-2-((5-methyl-N-(oxetan-3-yl)-1H-indazole)-7-sulfonamido)acetamide] | 0.42 | 
3 | Cc1cc(S(=O)(=O)N(C)CC(=O)NC2CCN(C)CC2)c2n[nH]cc2c1 [Example 53] | 0.963 | 
4 | Cc1cc(S(=O)(=O)N(C)CC(=O)NC2CCCOC2)c2n[nH]cc2c1 (stereo not shown) [Example 54] | 0.0906 | 
5 | Cc1cc(S(=O)(=O)N(C)CC(=O)N[C@H]2CCc3ccccc32)c2n[nH]cc2c1 [Example 55] | 0.874 | 
6 | Cc1cc(S(=O)(=O)N(C)CC(=O)N[C@@H]2CCc3ccccc32)c2n[nH]cc2c1 [Example 56] | 0.0426 | 
7 | Cc1cc(S(=O)(=O)N(C)CC(=O)Nc2nc3ccccc3s2)c2n[nH]cc2c1 [Example 58] | 0.0315 | 
8 | COc1ccc(NC(=O)CN(C)S(=O)(=O)c2cc(C)cc3c[nH]nc23)nc1 [Example 60] | 0.0415 | 
9 | Cc1cc(S(=O)(=O)N(C)CC(=O)Nc2ccc3ccccc3n2)c2n[nH]cc2c1 [Example 64] | 0.0335 | 
10 | Cc1cc(S(=O)(=O)N(C)CC(=O)NC2CCOCC2)c2n[nH]cc2c1 [Example 65] | 0.118 | 
11 | Cc1cc(S(=O)(=O)N(C)CC(=O)NC2CCCN(C)C2)c2n[nH]cc2c1 (stereo not shown) [Example 66] | 0.593 | 
12 | Cc1cc(S(=O)(=O)N(C)CC(=O)Nc2cc3ccccc3cn2)c2n[nH]cc2c1 [Example 67] | 0.0372 | 
13 | Cc1cc(S(=O)(=O)N(C)CC(=O)NC2CCN(C)C(=O)C2)c2n[nH]cc2c1 (stereo not shown) [Example 68] | 0.149 | 
14 | Cc1cc(S(=O)(=O)N2CC[C@H]2C(=O)NC2CCCCC2)c2[nH]ncc2c1 [Example 70, (S)—N-cyclohexyl-1-((5-methyl-1H-indazol-7-yl)sulfonyl)azetidine-2-carboxamide] | 0.279 | 
15 | Cc1cc(S(=O)(=O)N(C)CC(=O)NC2CCCCC2)c2n[nH]cc2c1 [Example 73] | 0.0858 | 
16 | Cc1cc(S(=O)(=O)N(C)CC(=O)NC2C(=O)Nc3ccccc32)c2n[nH]cc2c1 (stereo not shown) [Example 77] | 0.803 | 
17 | Cc1cc(S(=O)(=O)N(C)CC(=O)NC2C(=O)N(C)c3ccccc32)c2n[nH]cc2c1 (stereo not shown) [Example 79] | 0.779 | 
18 | Cc1cc(S(=O)(=O)N2CC[C@H]2C(=O)NC2COC2)c2[nH]ncc2c1 [Example 80] | 0.285 | 
19 | Cc1cc(S(=O)(=O)N2CCC2C(=O)NCc2ccccc2)c2[nH]ncc2c1 (stereo not shown) [Example 81] | 0.62 | 
20 | Cc1cc(S(=O)(=O)N2CC[C@H]2C(=O)Nc2cc3ccccc3cn2)c2[nH]ncc2c1 [Example 82] | 0.0489 | 
21 | Cc1cc(S(=O)(=O)N2CC[C@H]2C(=O)Nc2ccc3ccccc3n2)c2[nH]ncc2c1 [Example 84] | 0.027 | 

Row | SMILES | IC50 (read-out: LPD IC50) [µM] | IC50 [1] [µM]
22 | Cc1cc(S(=O)(=O)N2CC[C@H]2C(=O)Nc2ccc(C#N)c(Cl)c2)c2[nH]ncc2c1 [Example 86] | 0.0414 | 
23 | Cc1cc(S(=O)(=O)N(C)CC(=O)Nc2ccc3c(c2)OCCN3C2CCOCC2)c2[nH]ncc2c1 [Example 89] | 0.0419 | 
24 | Cc1cc(S(=O)(=O)N2CC[C@H]2C(=O)Nc2ccn3nccc3c2)c2[nH]ncc2c1 [Example 91] | 0.041 | 
25 | Cc1cc(S(=O)(=O)N2CCC[C@@H](C(=O)Nc3ccn(C)c(=O)c3)C2)c2[nH]ncc2c1 [Example 96, (R)-1-((5-methyl-1H-indazol-7-yl)sulfonyl)-N-(1-methyl-2-oxo-1,2-dihydropyridin-4-yl)piperidine-3-carboxamide] | 0.112 | 
26 | Cc1cc(S(=O)(=O)N(C)CC(=O)Nc2ccn3nc(C)cc3c2)c2[nH]ncc2c1 [Example 104] | 0.157 | 
27 | C#CCNC(=O)CN(C)S(=O)(=O)c1cc(C)cc2cn[nH]c12 [Example 107] | 0.047 | 
28 | Cc1cc(S(=O)(=O)N(C)CC(=O)NCc2cn(C)nn2)c2[nH]ncc2c1 [Example 108] | 0.111 | 
29 | Cc1cc(S(=O)(=O)N(C)CC(=O)NCc2ccccc2C)c2[nH]ncc2c1 [Example 109] | 0.107 | 
30 | Cc1cccc(CNC(=O)CN(C)S(=O)(=O)c2cc(C)cc3c[nH]nc23)c1 [Example 110] | 0.041 | 
31 | Cc1ccc(CNC(=O)CN(C)S(=O)(=O)c2cc(C)cc3cn[nH]c23)cc1 [Example 111] | 0.0522 | 
32 | Cc1cc(S(=O)(=O)N(C)CC(=O)N[C@H]2CCCOC2)c2[nH]ncc2c1 [Example 112] | 0.109 | 
33 | Cc1cc(S(=O)(=O)N(C)CC(=O)N[C@@H]2CCCOC2)c2[nH]ncc2c1 [Example 113] | 0.184 | 
34 | Cc1cc(S(=O)(=O)N(C)CC(=O)NC2CCc3cnccc32)c2n[nH]cc2c1 (stereo not shown) [Example 114] | 0.0954 | 
35 | Cc1cc(S(=O)(=O)N(C)CC(=O)Nc2nc3cnccc3s2)c2n[nH]cc2c1 [Example 115] | 0.0276 | 
36 | Cc1cc(S(=O)(=O)N(C)CC(=O)Nc2nc3c(s2)CCOC3)c2n[nH]cc2c1 [Example 116] | 0.0771 | 
37 | CCc1cc(S(=O)(=O)N(C)CC(=O)Nc2ccn(C)c(=O)c2)c2n[nH]cc2c1 [Example 117, 2-((5-ethyl-N-methyl-1H-indazole)-7-sulfonamido)-N-(1-methyl-2-oxo-1,2-dihydropyridin-4-yl)acetamide] | 0.05 | 
38 | CCCc1cc(S(=O)(=O)N(C)CC(=O)Nc2ccn(C)c(=O)c2)c2[nH]ncc2c1 [Example 118] | 0.0702 | 
39 | Cc1cc(S(=O)(=O)N2CC[C@@H](C(=O)Nc3ccc(N4CCOCC4)c(Cl)c3)C2)c2n[nH]cc2c1 [Example 119] | 0.0348 | 
40 | Cc1cc(S(=O)(=O)N2CCC(C(=O)Nc3ccc4c(c3)OCCN4C)C2)c2[nH]ncc2c1 (stereo not shown) [Example 120] | 0.0197 | 
41 | Cc1cc(S(=O)(=O)N(C)CC(=O)Nc2ccc(N3CCOCC3)c(Cl)c2)c2[nH]ncc2c1 [Example 126] | 0.019 | 0.015
42 | Cc1cc(S(=O)(=O)N(C)CC(=O)NC2(C)CCCCC2)c2n[nH]cc2c1 [Example 127] | 1.14 | 

Row | SMILES | IC50 (read-out: LPD IC50) [µM] | IC50 [1] [µM]
43 | Cc1cc(S(=O)(=O)N2CC[C@H]2C(=O)NC2CCOCC2)c2[nH]ncc2c1 [Example 128] | 1.07 | 
44 | Cc1cc(S(=O)(=O)N(C)CC(=O)Nc2ccn3c(C(F)(F)F)ncc3c2)c2n[nH]cc2c1 [Example 130] | 0.0345 | 
45 | Cc1cc(S(=O)(=O)N2CC[C@H]2C(=O)NC2CCc3ccccc32)c2[nH]ncc2c1 (stereo partly shown) [Example 131] | 2.52 | 
46 | Cc1cc(S(=O)(=O)N(C)CC(=O)Nc2ccn(C)c(=O)c2)c2nn[nH]c2c1 [Example 132, 2-((N,5-dimethyl-1H-benzo[d][1,2,3]triazole)-7-sulfonamido)-N-(1-methyl-2-oxo-1,2-dihydropyridin-4-yl)acetamide] | 0.386 | 
47 | Cc1cc(S(=O)(=O)N(C)CC(=O)Nc2ccn(C)c(=O)c2)c2[nH][nH]c(=O)c2c1 [Example 133, 2-((N,5-dimethyl-3-oxo-2,3-dihydro-1H-indazole)-7-sulfonamido)-N-(1-methyl-2-oxo-1,2-dihydropyridin-4-yl)acetamide] | 0.0706 | 
48 | Cc1cc(S(=O)(=O)N(C)CC(=O)Nc2ccn(C)c(=O)c2)c2[nH]c(C)cc2c1 [Example 134] | 0.963 | 
49 | Cc1cc(S(=O)(=O)N2CC[C@H]2C(=O)NC2CCCN(C)C2)c2[nH]ncc2c1 (stereo partly shown) [Example 135-R] | 2.65 | 
50 | Cc1cc(S(=O)(=O)N2CC[C@H]2C(=O)NC2CCCN(C)C2)c2[nH]ncc2c1 (stereo partly shown) [Example 135-S] | 5.87 | 
51 | Cc1cc(S(=O)(=O)N(C)CC(=O)Nc2nc3c(s2)CCN(C)C3)c2n[nH]cc2c1 [Example 137, 2-(N,5-dimethyl-1H-indazole-7-sulfonamido)-N-(5-methyl-4,5,6,7-tetrahydrothiazolo[4,5-c]pyridin-2-yl)acetamide] | 0.025 | 
52 | Cc1cc(S(=O)(=O)N2CC[C@H]2C(=O)NC2CCc3ccccc32)c2[nH]ncc2c1 (stereo partly shown) [Example 138] | > 10 | 
53 | Cc1cc(S(=O)(=O)N2CC[C@H]2C(=O)N[C@H]2CCCOC2)c2[nH]ncc2c1 [Example 141, (2S)-1-[(5-methyl-1H-indazol-7-yl)sulfonyl]-N-[(3S)-tetrahydropyran-3-yl]azetidine-2-carboxamide] | 0.811 | 
54 | Cc1cc(S(=O)(=O)N2CC[C@H]2C(=O)N[C@@H]2CCCOC2)c2[nH]ncc2c1 [Example 142, (2S)-1-[(5-methyl-1H-indazol-7-yl)sulfonyl]-N-[(3R)-tetrahydropyran-3-yl]azetidine-2-carboxamide] | 0.47 | 
55 | Cc1cc(S(=O)(=O)N(C)CC(=O)Nc2nc3c(s2)NCCC3)c2n[nH]cc2c1 [Example 154, 2-((N,5-dimethyl-1H-indazole)-7-sulfonamido)-N-(4,5,6,7-tetrahydrothiazolo[5,4-b]250yclopro-2-yl)acetamide] | 0.05 | 
56 | CCN(CC(=O)Nc1ccc2c(c1)OCCN2C1COC1)S(=O)(=O)c1cc(C)cc2c[nH]nc12 [Example 155] | 0.0246 | 
57 | Cc1cc(S(=O)(=O)N(C)CC(=O)Nc2ccc3c(c2)OCCN3C(C)C)c2n[nH]cc2c1 [Example 157] | 0.014 | 
58 | CN(CC(=O)Nc1ccn(C)c(=O)c1)S(=O)(=O)c1cc(C2(O)CC2)cc2cn[nH]c12 [Example 172, 2-((5-(1-hydroxycyclopropyl)-N-methyl-1H-indazole)-7-sulfonamido)-N-(1-methyl-2-oxo-1,2-dihydropyridin-4-yl)acetamide] | 0.654 | 
59 | Cc1cc(S(=O)(=O)N(C)CC(=O)Nc2ccn(C)c(=O)c2)c2[nH]nc(C#N)c2c1 [Example 182, 2-((3-cyano-N,5-dimethyl-1H-indazole)-7-sulfonamido)-N-(1-methyl-2-oxo-1,2-dihydropyridin-4-yl)acetamide] | 0.724 | 
60 | Cc1cc(S(=O)(=O)N2CCC(C(=O)Nc3ccn(C)c(=O)c3)C2)c2[nH]ncc2c1 (stereo not shown) [Example 213] | 1.92 | 
61 | Cc1cc(S(=O)(=O)N(C)CC(=O)Nc2ccn3nccc3c2)c2[nH]c(C#N)cc2c1 [Example 220] |  | 0.019
62 | Cc1cc(S(=O)(=O)N(C)CC(=O)Nc2ccc3c(c2)CCCO3)c2[nH]c(C#N)cc2c1 [Example 221] |  | 0.015
63 | Cc1cc(S(=O)(=O)N(C)CC(=O)Nc2cc(=O)n(C)cn2)c2[nH]c(C#N)cc2c1 [Example 222] |  | 0.027

Reference: patent US20240132480A1, “INHIBITORS OF MYCOBACTERIUM TUBERCULOSIS LIPOAMIDE DEHYDROGENASE” (Cornell University, priority 2021, published 2024)
